We go through 27 compounds from US20100010219A1, “METHOD FOR PRODUCING PYRROLIDINE COMPOUND” (JAPAN TOBACCO INC., priority 2006, published 2010).

In this assay the target is T1, human HSD-1 (recombinant HSD-1) (Homo sapiens, UniProt P28845).
T1 construct: made in house
The assay can be described thus: HSD-1 activity inhibitory action in vitro (SPA, conversion of cortisone to cortisol). It counts as biochemical. The note with it: recombinant human HSD-1 expressed using baculovirus system; 10 nM 3H cortisone, 500 μM NADPH; room temperature 90 to 120 min; read-out: hHSD1 (IC50 (nM)).

Counter-ions that a name gives are not always drawn.

T1 sequence (P28845 whole entry): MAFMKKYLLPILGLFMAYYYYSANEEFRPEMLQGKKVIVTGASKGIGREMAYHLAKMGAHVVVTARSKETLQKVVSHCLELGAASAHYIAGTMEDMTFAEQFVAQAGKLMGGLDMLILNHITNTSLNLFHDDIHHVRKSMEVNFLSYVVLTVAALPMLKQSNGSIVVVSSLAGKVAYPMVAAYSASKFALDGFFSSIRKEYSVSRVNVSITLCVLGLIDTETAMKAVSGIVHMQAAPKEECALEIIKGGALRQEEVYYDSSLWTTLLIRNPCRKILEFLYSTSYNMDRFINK

Broadly, the IC50 is the concentration needed to halve the response being measured. As for `O=C(CO)N1CCC(n2ncc(C(=O)N3CC[C@@H](c4ccccc4C(F)(F)F)C3)c2C2CC2)CC1` [Example 65, 1-{5-cyclopropyl-1-[1-(2-hydroxyacetyl)piperidin-4-yl]-1H-pyrazole-4-carbonyl}-[(S)-3-(2-trifluoromethylphenyl)]pyrrolidine], the IC50 was less than 30 nM.
For `O=C(c1cnn(C2CCN(CC3(C(=O)NCCO)CC3)CC2)c1C1CC1)N1CC[C@@H](c2ccccc2C(F)(F)F)C1` [Example 107, 1-(5-cyclopropyl-1-{1-[1-(2-hydroxyethylcarbamoyl)cyclopropylmethyl]piperidin-4-yl}-1H-pyrazole-4-carbonyl)-[(S)-3-(2-trifluoromethylphenyl)]pyrrolidine hydrochloride] the value was less than 30 nM; for `O=C(Nc1ccccc1O)N1CCC(n2ncc(C(=O)N3CC[C@@H](c4ccccc4C(F)(F)F)C3)c2C2CC2)CC1` [Example 53, 1-{5-cyclopropyl-1-[1-(2-hydroxyphenylcarbamoyl)piperidin-4-yl]-1H-pyrazole-4-carbonyl}-[(S)-3-(2-trifluoromethylphenyl)]pyrrolidine], less than 30 nM; for `CN(C)CCNC(=O)N1CCC(n2ncc(C(=O)N3CC[C@@H](c4ccccc4C(F)(F)F)C3)c2C2CC2)CC1` [Example 13, 1-{5-cyclopropyl-1-[1-(2-dimethylaminoethylcarbamoyl)piperidin-4-yl]-1H-pyrazole-4-carbonyl}-[(S)-3-(2-trifluoromethylphenyl)]pyrrolidine hydrochloride], less than 30 nM.
As for `CC(=O)NC1CN(C(=O)N2CCC(n3ncc(C(=O)N4CC[C@@H](c5ccccc5C(F)(F)F)C4)c3C3CC3)CC2)C1` [Example 45, 1-{1-[1-(3-acetylaminoazetidine-1-carbonyl)piperidin-4-yl]-5-cyclopropyl-1H-pyrazole-4-carbonyl}-[(S)-3-(2-trifluoromethylphenyl)]pyrrolidine], the IC50 is less than 30 nM.
Take `COC(=O)N1CCC(n2ncc(C(=O)N3CC[C@@H](c4ccccc4C(F)(F)F)C3)c2C2CC2)CC1` [Example 57, 1-[5-cyclopropyl-1-(1-methoxycarbonylpiperidin-4-yl)-1H-pyrazole-4-carbonyl]-[(S)-3-(2-trifluoromethylphenyl)]pyrrolidine]: the IC50 is less than 30 nM.
For `O=C1CC[C@@H](C(=O)N2CCC(n3ncc(C(=O)N4CC[C@@H](c5ccccc5C(F)(F)F)C4)c3C3CC3)CC2)N1` [Example 74, 1-(5-cyclopropyl-1-{1-[(S)-5-oxopyrrolidine-2-carbonyl]piperidin-4-yl}-1H-pyrazole-4-carbonyl)-[(S)-3-(2-trifluoromethylphenyl)]pyrrolidine] the value was less than 30 nM.
Turning to `CC1(c2c(C(=O)N3CCC(c4cccnc4)C3)cnn2C2CCN(C(=O)Nc3ccc(C(F)(F)F)cc3)CC2)CC1` (stereo not drawn) [Example 133, 1-{5-(1-methylcyclopropyl)-1-[1-(4-trifluoromethylphenylcarbamoyl)piperidin-4-yl]-1H-pyrazole-4-carbonyl}-3-(pyridin-3-yl)pyrrolidine], the IC50 was less than 30 nM.
As to `CC(C)(CO)C(=O)N1CCC(n2ncc(C(=O)N3CC[C@@H](c4ccccc4C(F)(F)F)C3)c2C2CC2)CC1` [Example 76, 1-{5-cyclopropyl-1-[1-(3-hydroxy-2,2-dimethylpropionyl)piperidin-4-yl]-1H-pyrazole-4-carbonyl}-[(S)-3-(2-trifluoromethylphenyl)]pyrrolidine], the IC50 was less than 30 nM.
In the case of `NC(=O)N[C@H]1CC[C@H](n2ncc(C(=O)N3CC[C@@H](c4ccccc4C(F)(F)F)C3)c2C2CC2)CC1` [Example 131, 1-[5-cyclopropyl-1-(trans-4-ureidocyclohexyl)-1H-pyrazole-4-carbonyl]-[(S)-3-(2-trifluoromethylphenyl)]pyrrolidine], the IC50 was less than 30 nM.
For `CC(=O)N[C@@H](C)C(=O)N1CCC(n2ncc(C(=O)N3CC[C@@H](c4ccccc4C(F)(F)F)C3)c2C2CC2)CC1` [Example 71, 1-(1-{1-[(S)-2-acetylaminopropionyl]piperidin-4-yl}-5-cyclopropyl-1H-pyrazole-4-carbonyl)-[(S)-3-(2-trifluoromethylphenyl)]pyrrolidine], the IC50 was less than 30 nM.
For `CC(C)C(=O)NCC(=O)N1CCC(n2ncc(C(=O)N3CC[C@@H](c4ccccc4C(F)(F)F)C3)c2C2CC2)CC1` [Example 87, 1-{5-cyclopropyl-1-[1-(2-isobutyrylaminoacetyl)piperidin-4-yl]-1H-pyrazole-4-carbonyl}-[(S)-3-(2-trifluoromethylphenyl)]pyrrolidine], the IC50 was less than 30 nM.
`CC(C)[C@@H](C(=O)O)N(C)C(=O)N1CCC(n2ncc(C(=O)N3CCC(c4ccccc4C(F)(F)F)C3)c2C2CC2)CC1` (stereo partly drawn) [Example 142, 1-(5-cyclopropyl-1-{1-[((S)-1-carboxy-2-methyl-propyl)methylcarbamoyl]piperidin-4-yl}-1H-pyrazole-4-carbonyl)-3-(2-trifluoromethylphenyl)pyrrolidine]: the IC50 is less than 30 nM.
On to `O=C(Nc1ccc(C(F)(F)F)cc1)N1CCC(n2ncc(C(=O)N3CCC(c4ccccc4C(F)(F)F)C3)c2C2CC2)CC1` (stereo not drawn) [Example 141, 1-{5-cyclopropyl-1-[1-(4-trifluoromethylphenylcarbamoyl)piperidin-4-yl]-1H-pyrazole-4-carbonyl}-3-(2-trifluoromethylphenyl)pyrrolidine], for which the IC50 is less than 30 nM.
On to `CC1(c2c(C(=O)N3CCC(c4ccccc4)(C(F)(F)F)C3)cnn2C2CCN(C(=O)Nc3ccccc3F)CC2)CC1` (stereo not drawn) [Example 135, 1-{1-[1-(2-fluorophenylcarbamoyl)piperidin-4-yl]-5-(1-methylcyclopropyl)-1H-pyrazole-4-carbonyl}-3-phenyl-3-trifluoromethylpyrrolidine], for which the IC50 is less than 30 nM.
The figure for `O=C(NC1CCNCC1)N1CCC(n2ncc(C(=O)N3CC[C@@H](c4ccccc4C(F)(F)F)C3)c2C2CC2)CC1` [Example 37, 1-{5-cyclopropyl-1-[1-(piperidin-4-yl-carbamoyl)piperidin-4-yl]-1H-pyrazole-4-carbonyl}-[(S)-3-(2-trifluoromethylphenyl)]pyrrolidine hydrochloride] is less than 30 nM; for `O=C(CCCO)N1CCC(n2ncc(C(=O)N3CC[C@@H](c4ccccc4C(F)(F)F)C3)c2C2CC2)CC1` [Example 80, 1-{5-cyclopropyl-1-[1-(4-hydroxybutyryl)piperidin-4-yl]-1H-pyrazole-4-carbonyl}-[(S)-3-(2-trifluoromethylphenyl)]pyrrolidine] it is less than 30 nM.
`CC(=O)NC1CCN(C(=O)N2CCC(n3ncc(C(=O)N4CC[C@@H](c5ccccc5C(F)(F)F)C4)c3C3CC3)CC2)CC1` [Example 39, 1-{1-[1-(4-acetylaminopiperidine-1-carbonyl)piperidin-4-yl]-5-cyclopropyl-1H-pyrazole-4-carbonyl}-[(S)-3-(2-trifluoromethylphenyl)]pyrrolidine]: the IC50 was less than 30 nM.
The figure for `CC1(c2c(C(=O)N3CCC(c4ccccc4C(F)(F)F)C3)cnn2[C@H]2CC[C@@H](C(=O)O)CC2)CC1` (stereo partly drawn) [Example 191, cis-4-{5-(1-methylcyclopropyl)-4-[3-(2-trifluoromethylphenyl)pyrrolidine-1-carbonyl]pyrazol-1-yl}cyclohexanecarboxylic acid] is less than 30 nM.
For the compound `CCONC(=O)N1CCC(n2ncc(C(=O)N3CCC(c4ccccc4C(F)(F)F)C3)c2C2(C)CC2)CC1` (stereo not drawn) [Example 172, 1-[1-(1-ethoxycarbamoylpiperidin-4-yl)-5-(1-methylcyclopropyl)-1H-pyrazole-4-carbonyl]-3-(2-trifluoromethylphenyl)pyrrolidine], the IC50 was less than 30 nM.
For `CC(=O)NCCNC(=O)N1CCC(n2ncc(C(=O)N3CC[C@@H](c4ccccc4C(F)(F)F)C3)c2C2CC2)CC1` [Example 10, 1-{1-[1-(2-acetylaminoethylcarbamoyl)piperidin-4-yl]-5-cyclopropyl-1H-pyrazole-4-carbonyl}-[(S)-3-(2-trifluoromethylphenyl)]pyrrolidine] the value was less than 30 nM; for `CS(=O)(=O)NCC(=O)N1CCC(n2ncc(C(=O)N3CC[C@@H](c4ccccc4C(F)(F)F)C3)c2C2CC2)CC1` [Example 90, 1-{5-cyclopropyl-1-[1-(2-methanesulfonylaminoacetyl)piperidin-4-yl]-1H-pyrazole-4-carbonyl}-[(S)-3-(2-trifluoromethylphenyl)]pyrrolidine], less than 30 nM.
For `O=C(c1cccc(Cl)c1)N1CCC(n2ncc(C(=O)N3CCC(c4cccnc4)C3)c2C2CC2)CC1` (stereo not drawn) [Example 156, 1-{1-[1-(3-chlorobenzoyl)piperidin-4-yl]-5-cyclopropyl-1H-pyrazole-4-carbonyl}-3-(pyridin-3-yl)pyrrolidine] the value was less than 30 nM; for `O=C(c1cnn(C2CCN(c3n[nH]c(C4CC4)n3)CC2)c1C1CC1)N1CC[C@@H](c2ccccc2C(F)(F)F)C1` [Example 118, 1-{5-cyclopropyl-1-[1-(5-cyclopropyl-4H-[1,2,4]triazol-3-yl)piperidin-4-yl]-1H-pyrazole-4-carbonyl}-[(S)-3-(2-trifluoromethylphenyl)]pyrrolidine hydrochloride], less than 30 nM.
As to `O=C(O)C(=O)N1CCC(n2ncc(C(=O)N3CCC(c4ccccc4C(F)(F)F)C3)c2C2CC2)CC1` (stereo not drawn) [Example 158, 1-[5-cyclopropyl-1-(1-oxalylpiperidin-4-yl)-1H-pyrazole-4-carbonyl]-3-(2-trifluoromethylphenyl)pyrrolidine], the IC50 was less than 30 nM.
For `COC(=O)c1ccc(N2CCC(n3ncc(C(=O)N4CCC(c5ccccc5C(F)(F)F)C4)c3C3CC3)CC2)nc1` (stereo not drawn) [Example 178, methyl 6-(4-{5-cyclopropyl-4-[3-(2-trifluoromethylphenyl)pyrrolidine-1-carbonyl]pyrazol-1-yl}piperidin-1-yl)nicotinate], the IC50 is less than 30 nM.
Consider `NC(=O)C1CCN(C(=O)N2CCC(n3ncc(C(=O)N4CC[C@@H](c5ccccc5C(F)(F)F)C4)c3C3CC3)CC2)CC1` [Example 33, 1-{1-[1-(4-carbamoylpiperidine-1-carbonyl)piperidin-4-yl]-5-cyclopropyl-1H-pyrazole-4-carbonyl}-[(S)-3-(2-trifluoromethylphenyl)]pyrrolidine], for which the IC50 was less than 30 nM.
